Earlier results on one compound are cited in patent US20030171386A1, “Small molecules for the treatment of abnormal cell growth” (Pfizer Inc., priority 2001, published 2003).

The subject of data set [1] is transplanted human mammary carcinoma, which expresses epidermal growth factor receptor tyrosine kinase (EGFR). Conditions: EGFR-expressing human mammary carcinoma in athymic nude mice; cited from earlier work.
Data set [2] has as its system another carcinoma, which does not express the EGF receptor. Conditions: carcinoma not expressing the EGF receptor; cited from earlier work.

Consider `O=CN/C=C/c1cc(O)ccc1O` [erbstatin], for which the values for the tumor growth result in data set [1] and in data set [2] were “selectively attenuates the growth” and “without effect on the growth”, respectively.
